Measured values reported in paper PMC12023841, “Unlocking the Gates: A Novel Diagnostic Molecule for Quantifying Efflux Levels in Gram‐Positive Bacteria” (Advanced Healthcare Materials, 2025).
Where two headings read alike, the source gives them in different places.

Legend:
S. aureus strains [1] = assay type: cell-based
S. epidermidis strains [2] = assay type: cell-based
S. aureus strains [3] = conditions: cited from earlier work
S. epidermidis strains [4] = test system: S. epidermidis strains; design: method as in earlier work; conditions: ref [5], cited from earlier work
NorA efflux pump = NorA efflux pump (Staphylococcus aureus, UniProt P0A0J7); assay type: cell-based, S. aureus; conditions: 5a4 1 µg mL^−1
Sequence of NorA efflux pump (P0A0J7 whole entry): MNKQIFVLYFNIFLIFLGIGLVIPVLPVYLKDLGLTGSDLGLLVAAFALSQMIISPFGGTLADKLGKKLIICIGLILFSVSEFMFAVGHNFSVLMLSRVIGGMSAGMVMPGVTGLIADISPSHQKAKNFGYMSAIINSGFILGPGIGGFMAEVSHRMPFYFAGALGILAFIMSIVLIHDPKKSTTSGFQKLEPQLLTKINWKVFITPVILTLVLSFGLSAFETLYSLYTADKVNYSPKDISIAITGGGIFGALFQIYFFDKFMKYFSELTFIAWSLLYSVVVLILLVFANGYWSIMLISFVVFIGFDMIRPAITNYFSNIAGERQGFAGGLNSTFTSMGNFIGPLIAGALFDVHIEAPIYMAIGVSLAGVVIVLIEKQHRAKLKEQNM

[5] = Precipitation of reserpine in the presence of 5a4; assay type: physicochemical; conditions: text printed in Figure 7C

COc1c(N2C[C@@H]3CCCN[C@@H]3C2)c(F)cc2c(=O)c(C(=O)O)cn(C3CC3)c12 [MXF, Moxifloxacin]
Susceptibility profile (S. aureus strains [1]): R and S
Susceptibility profile (S. aureus strains [1]; […]): S
Susceptibility profile (S. aureus strains [1]; strain BIOS-H1): S
Susceptibility profile (S. aureus strains [1]; strain BIOS-H2): S
Susceptibility profile (S. aureus strains [1]; strain BIOS-H3): S
Susceptibility profile (S. aureus strains [1]; strain BIOS-H5): S
Susceptibility profile (S. aureus strains [1]; strain BIOS-H6): S
Susceptibility profile (S. aureus strains [1]; strain BIOS-H12): S
Susceptibility profile (S. aureus strains [1]; strain BIOS-H13): S
Susceptibility profile (S. aureus strains [1]; strain BIOS-H17): S
Susceptibility profile (S. aureus strains [1]; strain BIOS-H20): S
Susceptibility profile (S. aureus strains [1]; strain BIOS-H21): S
Susceptibility profile (S. aureus strains [1]; strain BIOS-H22): S
Susceptibility profile (S. aureus strains [1]; strain BIOS-H25): S
Susceptibility profile (S. aureus strains [1]; strain BIOS-H28): S
Susceptibility profile (S. aureus strains [1]; strain BIOS-H29): S
Susceptibility profile (S. aureus strains [1]; strain BIOS-H30): S
Susceptibility profile (S. aureus strains [1]; strain BIOS-H32): S
Susceptibility profile (S. aureus strains [1]; strain BIOS-V21): S
Susceptibility profile (S. aureus strains [1]; strain BIOS-V31): S
Susceptibility profile (S. aureus strains [1]; strain BIOS-V60): S
Susceptibility profile (S. aureus strains [1]; strain BIOS-V61): S
Susceptibility profile (S. aureus strains [1]; strain BIOS-V62): S
Susceptibility profile (S. aureus strains [1]; strain BIOS-V74): S
Susceptibility profile (S. aureus strains [1]; strain BIOS-V75): S
Susceptibility profile (S. aureus strains [1]; strain BIOS-V85): S
Susceptibility profile (S. aureus strains [1]; strain BIOS-V118): S
Susceptibility profile (S. aureus strains [1]; strain BIOS-V128): S
Susceptibility profile (S. aureus strains [1]; strain BIOS-V147): S
Susceptibility profile (S. aureus strains [1]; strain BIOS-V151): S
Susceptibility profile (S. aureus strains [1]; strain BIOS-V156): S
Susceptibility profile (S. aureus strains [1]; strain BIOS-V157): S
Susceptibility profile (S. aureus strains [1]; strain BIOS-V158): S
Susceptibility profile (S. aureus strains [1]; strain BIOS-V168): S
Susceptibility profile (S. aureus strains [1]; strain BIOS-V172): S
Susceptibility profile (S. aureus strains [1]; strain BIOS-V178): S
Susceptibility profile (S. aureus strains [1]; strain BIOS-V203): S
Susceptibility profile (S. aureus strains [1]; strain BIOS-V245): S
Susceptibility profile (S. aureus strains [1]; strain BIOS-V250): S
Susceptibility profile (S. aureus strains [1]; strain BIOS-V257): S
Susceptibility profile (S. aureus strains [1]; strain BIOS-V279): S
Susceptibility profile (S. aureus strains [1]; strain BIOS-V295): S
Susceptibility profile (S. epidermidis strains [2]): R
Susceptibility profile (S. epidermidis strains [2]; strain BIOS-V24): S
Susceptibility profile (S. epidermidis strains [2]; strain BIOS-V282): S
Susceptibility profile (S. aureus strains [3]; strain ATCC25923, ref [4]): S
Susceptibility profile (S. aureus strains [3]; strain SA-1199, ref [2]): S
Susceptibility profile (S. aureus strains [3]; strain SA-1199B, ref [2]): S
Susceptibility profile (S. aureus strains [3]; strain SA-K1712, ref [3]): S
Susceptibility profile (S. aureus strains [3]; strain SA-K1748, ref [3]): R
Susceptibility profile (S. aureus strains [3]; strain SA-K1758, ref [2]): S
Susceptibility profile (S. aureus strains [3]; strain SA-K2068, ref [3]): R
Susceptibility profile (S. epidermidis strains [4]; strain ATCC12228): S
Susceptibility profile (S. epidermidis strains [4]; strain ATCC12228_EtBr): R

COC(=O)[C@H]1[C@H]2C[C@@H]3c4[nH]c5cc(OC)ccc5c4CCN3C[C@H]2C[C@@H](OC(=O)c2cc(OC)c(OC)c(OC)c2)[C@@H]1OC [reserpine]
change of 5a4 fluorescent intensity with reserpine (NorA efflux pump; SA‐1199B): drastic increase
reserpine concentration giving significant increase (p < 0.01) in 5a4 fluorescence intensity versus untreated cells (NorA efflux pump; SA‐1199 and SA‐1199B): ≥ 10 µg/mL
change of 5a4 fluorescent intensity with reserpine (NorA efflux pump; SA‐K1758 (norA‐deficient)): no discernible change
Precipitation of reserpine (concentration) [5]: 20 to 30 µg/mL
